ChEMBL document CHEMBL4177636, “Design, synthesis, and biological evaluation of pyrrolobenzodiazepine-containing hypoxia-activated prodrugs” (Bioorg Med Chem Lett, 2017)
pIC50: −log10 of the molar value.

Assays:
[1] = (§1) Prodrug activation assessed as recombinant human cytochrome P450-reductase-mediated drug metabolism by measuring (11aS,11a'S)-8,8'-(pentane-1,5-diylbis(oxy))bis(7-methoxy-2-methylene-2,3-dihydro-1H-benzo[e]pyrrolo[1,2-a][1,4]diazepin-5(11aH)-one) level under hypoxic condition after 2 hrs by LC-MS analysis; format: ADME; conditions: recombinant enzyme
[2] = as §1, with “normoxic” for “hypoxic”; format: ADME; conditions: recombinant enzyme
[3] = tested on: NCI-H460; test: Cytotoxicity against human NCI-H460 cells after 24 hrs under normoxic condition by luminescence-based Cell-Titer Glo assay; conditions: NCI-H460, 24 h
[4] = Selectivity index, ratio of prodrug IC50 under normoxic condition to prodrug IC50 under hypoxic condition; format: functional
[5] = tested on: NCI-H460; test: Cytotoxicity against human NCI-H460 cells after 24 hrs under hypoxic condition by luminescence-based Cell-Titer Glo assay; format: functional; conditions: NCI-H460, 24 h
[6] = Prodrug activation assessed as recombinant human cytochrome P450-reductase-mediated drug metabolism by measuring (S)-7,8-dimethoxy-2-methylene-2,3-dihydro-1H-benzo[e]pyrrolo[1,2-a][1,4]diazepin-5(11aH)-one level under normoxic condition after 2 hrs by LC-MS analysis; format: ADME; conditions: recombinant enzyme
[7] = Prodrug activation assessed as recombinant human cytochrome P450-reductase-mediated drug metabolism by measuring (S)-7,8-dimethoxy-2-methylene-2,3-dihydro-1H-benzo[e]pyrrolo[1,2-a][1,4]diazepin-5(11aH)-one level under hypoxic condition after 2 hrs by LC-MS analysis; format: ADME; conditions: recombinant enzyme
[8] = Induction of DNA (unknown origin) alkylation assessed as amount remaining of unalkylated test oligonucleotides after 18 hrs by LC/MS/UV analysis; design: concentration or dose not given beside the values
[9] = Prodrug activation assessed as recombinant human cytochrome P450-reductase-mediated drug metabolism by measuring (S)-7,8-dimethoxy-2-(quinolin-6-yl)-1H-benzo[e]pyrrolo[1,2-a][1,4]diazepin-5(11aH)-one level under hypoxic condition after 2 hrs by LC-MS analysis; format: ADME; conditions: recombinant enzyme
[10] = Prodrug activation assessed as recombinant human cytochrome P450-reductase-mediated drug metabolism by measuring (S)-7,8-dimethoxy-2-(quinolin-6-yl)-1H-benzo[e]pyrrolo[1,2-a][1,4]diazepin-5(11aH)-one level under normoxic condition after 2 hrs by LC-MS analysis; format: ADME; conditions: recombinant enzyme

Work on `C=C1C[C@H]2C=Nc3cc(OCCCCCOc4cc5c(cc4OC)C(=O)N4CC(=C)C[C@H]4C(O)N5C(=O)OCc4cncn4C)c(OC)cc3C(=O)N2C1` (some centres not stated) yielded a Drug metabolism [1] of 0% and a Drug metabolism [2] of 0%.
`C=C1C[C@H]2C(O)N(C(=O)OCc3cnc([N+](=O)[O-])n3C)c3cc(OC)c(OC)cc3C(=O)N2C1` (some centres not stated) showed a pIC50 [3] of 3.71, a Ratio IC50 [4] of 5.6 and a pIC50 [5] of 4.46. It also gave a Drug metabolism [6] of 2%, a Drug metabolism [7] of 100% and an Activity [8] of 100%.
`Cn1c(COP(=O)(NCCBr)NCCBr)cnc1[N+](=O)[O-]` [EVOFOSFAMIDE] showed a pIC50 [3] of 5.18, a Ratio IC50 [4] of 715 and a pIC50 [5] of 8.03.
Work on `C=C1C[C@H]2C(O)N(C(=O)OCc3cncn3C)c3cc(OC)c(OC)cc3C(=O)N2C1` (some centres not stated) yielded a Drug metabolism [6] of 0% and a Drug metabolism [7] of 0%.
`COc1cc2c(cc1OC)C(=O)N1C=C(c3ccc4ncccc4c3)C[C@H]1C=N2` showed a pIC50 [3] of 9.11, a Ratio IC50 [4] of 1.4 and a pIC50 [5] of 9.27. The Activity [8] was 78%.
`C=C1C[C@H]2C=Nc3cc(OC)c(OC)cc3C(=O)N2C1` showed a pIC50 [3] of 6.26, a Ratio IC50 [4] of 2 and a pIC50 [5] of 6.56. For the same compound, the Activity [8] was 84%.
`C=C1C[C@H]2C=Nc3cc(OCCCCCOc4cc5c(cc4OC)C(=O)N4CC(=C)C[C@H]4C=N5)c(OC)cc3C(=O)N2C1` gave a pIC50 [3] of 10.04, a Ratio IC50 [4] of 1.5 and a pIC50 [5] of 10.21. For the same compound, the Activity [8] was 42%.
For `C=C1C[C@H]2C=Nc3cc(OCCCCCOc4cc5c(cc4OC)C(=O)N4CC(=C)C[C@H]4C(O)N5C(=O)OCc4cnc([N+](=O)[O-])n4C)c(OC)cc3C(=O)N2C1` (some centres not stated), the pIC50 [3] was 8.85, the Ratio IC50 [4] was 1.3 and the Drug metabolism [1] was 0%. It also gave a pIC50 [5] of 8.96, an Activity [8] of 92% and a Drug metabolism [2] of 0%.
In the case of `COc1cc2c(cc1OC)N(C(=O)OCc1cnc([N+](=O)[O-])n1C)C(O)[C@@H]1CC(c3ccc4ncccc4c3)=CN1C2=O` (some centres not stated), the pIC50 [3] was 6.63, the Ratio IC50 [4] was 13.6 and the pIC50 [5] was 7.77. For the same compound, the Drug metabolism [9] was 92%, the Activity [8] was 100% and the Drug metabolism [10] was 5%.
